Measured values: patent US20230146675A1, “PYRIMIDO[5,4-d]PYRIMIDINE DERIVATIVES AS ENT INHIBITORS FOR THE TREATMENT OF CANCERS, AND COMBINATION THEREOF WITH ADENOSINE RECEPTOR ANTAGONISTS” (ITEOS BELGIUM SA, priority 2020, published 2023)
Like-named read-outs stand apart in the source and are kept apart here.

Key:
human ENT1 [1] = molecular target: T1, human ENT1 (Homo sapiens, UniProt Q99808); assay: Uridine transport inhibition assay (3H-uridine uptake, MDCKII-ENT1-LV cells); assay type: cell-based; conditions: 3H-uridine (1 μM), 1 min at 25° C.
T1 sequence (Q99808 1-456): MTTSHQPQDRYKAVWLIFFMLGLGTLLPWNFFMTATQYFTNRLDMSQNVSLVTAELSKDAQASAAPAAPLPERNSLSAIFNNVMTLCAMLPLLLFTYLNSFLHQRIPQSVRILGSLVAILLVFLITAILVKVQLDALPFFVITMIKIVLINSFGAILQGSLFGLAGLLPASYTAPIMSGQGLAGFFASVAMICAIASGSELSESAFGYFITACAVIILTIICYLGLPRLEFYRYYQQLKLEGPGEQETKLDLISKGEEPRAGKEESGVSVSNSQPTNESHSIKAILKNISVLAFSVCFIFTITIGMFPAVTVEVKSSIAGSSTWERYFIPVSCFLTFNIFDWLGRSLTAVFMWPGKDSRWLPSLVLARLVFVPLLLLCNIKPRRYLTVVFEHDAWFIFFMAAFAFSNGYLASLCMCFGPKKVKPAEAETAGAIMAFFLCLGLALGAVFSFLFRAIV
Source text: Purpose. The aim of this study was to determine the potency of equilibrative nucleoside transporter 1 (ENT1) inhibitors by measuring ENT1-mediated transport is the cellular uptake assay. The human ENT1 transporter can be stably expressed in Madin-Darby Canine Kidney II (MDCKII) cells via transduction. Uridine is efficiently transported by ENT1 and is used as probe in the assay as 3H-uridine. The interaction is detected as the modulation of the initial rate of 3H-uridine transport by human ENT1 into MDCKII-ENT1-LV cells stably expressing ENT1 uptake transporter.

[2] = system: stimulated primary human T cells; assay: T cell proliferation assay (rescue of proliferation in presence of 100 uM ATP); assay type: cell-based
Procedure: Purpose. The aim of this study was to determine the potency of equilibrative nucleoside transporter 1 (ENT1) inhibitors to rescue proliferation by stimulated primary human T cells incubated in the presence of 100 uM Adenosine triphosphate (ATP) with: • Condition A: X-VIVO15 • Condition B: X-VIVO15, 2% Human Serum Albumine (HSA) and 0.1% α-1-Acid Glycoprotein (AAG)
Method. Cryopreserved purified human CD3+ T cells were thawed and washed twice with RPMI1640 medium, UltraGlutamine containing 10% hiFBS.
Cells were suspended in PBS containing 10% hiFBS. Cells were stained with CFSE by adding 2 μM solution in PBS, to get a final 1 μM CFSE solution. Cells were incubated while rotating for 5 minutes. Reaction was stopped by adding PBS with 10% FBS and cells were centrifuged for 5 minutes at 1500 rpm.
Cells were resuspended at 1.6×10^6 cells/mL, either in X-VIVO15 medium or in 4% Human Serum Albumin and 0.2% α-1-Acid Glycoprotein. 50 μL of cell suspension (8×10^4 T cells) was added to wells of sterile round-bottom 96-well plates. Cells were activated by adding 50 μL of anti-CD3 anti-CD28 coated microbeads, suspended either in XVIVO-15 medium or in 4% HSA and 0.2% α-1-Acid Glycoprotein, at a ratio of one microbead per two cells.
Serial dilutions of the ENT1 inhibitors were prepared in X-VIVO15 from 10 mM stock solutions in DMSO, and 50 μL was added to the wells.
ATP powder was diluted in X-VIVO15, and 50 μL of this compound was added to the wells to reach a final assay concentration of 100 μM. Final volume of 200 μL.
The experiments were also performed in 384 well plates—all volumes reduced by a factor of 4 ([…]) with a final volume of 50 μL.
Experiments were performed in duplicate. The cells were placed in a 37° C. humidified tissue culture incubator with 5% CO2 for 72 hours for 96 well plates, 96 hours for 384 well plates. After 72 or 96 hours, proliferation was measured determined by CFSE dilution via flow cytometry.
Results. Compounds of the invention have good ENT1 inhibitory properties.

human ENT1 [3] = molecular target: T1, human ENT1; assay: ENT1 binding assay (competition with Sahenta-DY647 on JAR cells); design: JAR cells expressing ENT1 were bought from ATCC; host or cells: JAR cells; conditions: binned IC50
Outline: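 JAR cells were incubated with test compounds and the fluorescent ligand Sahenta-DY647 in competition. Plates were washed twice by centrifugation (4 min, 400 rcf, 4 °C). Binding potency was derived from the final fluorescence.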

human AAG protein = assay: AAG binding assay - dialysis assay; conditions: 2 μM, 37° C., 4-hr
Procedure: Purpose. The aim of this assay is to determine the binding of a compound of interest to the human AAG protein using the robust method of dialysis.
Material. […] The dialysis Buffer (100 mM Phosphate Buffered Saline, pH 7.4) has been prepared by dissolving 28.56 g Na2HPO4.12H2O (AR grade) and 3.12 g NaH2PO4.2H2O (AR grade) into a final volume of 1000 mL ultra pure water, mixed, and adjusted the resulting solution with 1% phosphoric acid or 1 M sodium hydroxide to pH 7.4±0.1. Stored the final solution in 2-8° C. refrigerator within an expiration of a month after preparation.
Method: The dialysis membrane is soaked in dialysis buffer at 4° C. overnight. The following day the membrane is separated into two strips and then soaked in ethanol: water (20:80 v:v) for 20 mins. Then the membrane was rinsed with ultra-pure water 3-4 times. Prepared 400 μM working solution by diluting the stock solution (10 mM) with appropriate volume of DMSO. 5 μL aliquots of each working solution were spiked into 1000 μL of blank protein (matrix) to achieve a 2 μM final concentration as loading solution. The plates of loading solution were mixed well. Aliquots of 150 μL of loading solution were loaded in triplicate to the donor side of each dialysis well and dialyzed against an equal volume of dialysis buffer. […]
The concentration was calculated using the peak area ratio of analyte and internal standard.

[4] = system: human alpha 1-acid glycoprotein (AAG); assay: AAG binding assay - HPLC assay
Procedure: Purpose. […] The principle of the assay is a liquid chromatography on a human AAG protein immobilized onto a silica support for separations of compounds following their affinity to AAG protein. By measuring the retention time, the binding to AAG can be determined relatively to the references.
Method. […] Mobile Phase A: 50 mM Ammonium acetate in deionized water; Mobile Phase B: Isopropanol; Column Oven: 8° C.; PDA(nm): 230; Flow Rate (mL/min): 0.2. Test Concentration (μmol/L): 100 (from 10 mmol/L DMSO solution diluted 100 folds by 50 mM Ammonium acetate in deionized water: Isopropanol (1:1)). Generic Gradient: Time (min): 0.01; 5; 13; 14; 20.

[5] = Condition A: X-VIVO15, read-out: TCell proliferation (Condition A) IC50
[6] = Condition B: X-VIVO15, 2% HSA and 0.1% AAG, read-out: TCell proliferation (Condition B) IC50

Structure (SMILES)	IC50 (human ENT1 [1])	IC50 (human ENT1 [3])	IC50 [2, 5]	IC50 [2, 6]	also measured
CCCN(C)c1nc(N(CCOC)CCOC)nc2c(N3CCC(OC)CC3)nc(N(CCOC)CCOC)nc12 [Compound 68, N2,N2,N6,N6-tetrakis(2-methoxyethyl)-8-(4-methoxypiperidin-1-yl)-N4-methyl-N4-propylpyrimido[5,4-d]pyrimidine-2,4,6-triamine]	< 0.1 µM	< 0.1 µM	0.5 to 1 µM	0.5 to 1 µM	–
COCCN(CCOC)c1nc(N2CCC(OC)CC2)c2nc(N(CCOC)CCOC)nc(NCc3ccc(F)c(C#N)c3)c2n1 [Compound 149, 5-(((2,6-bis(bis(2-methoxyethyl)amino)-8-(4-methoxypiperidin-1-yl)pyrimido[5,4-d]pyrimidin-4-yl)amino)methyl)-2-fluorobenzonitrile]	< 0.1 µM	< 0.1 µM	0.1 to 0.5 µM	0.1 to 0.5 µM	–
COCCN(CCOC)c1nc(N2CCC(OC)CC2)c2nc(N(CCO)CCO)nc(N3CCC(OC)CC3)c2n1 [Compound 27, 2,2′-((6-(bis(2-methoxyethyl)amino)-4,8-bis(4-methoxypiperidin-1-yl)pyrimido[5,4-d]pyrimidin-2-yl)azanediyl)diethanol]	–	0.5 to 1 µM	–	–	Human alpha-1-acid glycoprotein (AAG) (1 mg/mL) Unbound (human AAG protein): 89.4% Unbound
CC(C)NCC(O)COc1cccc2ccccc12 (stereo not drawn) [Propranolol, reference compound]	–	–	–	–	retention time (rt) on immobilized human AAG column ([4]; human, 100 μmol/L): 14.05 min
COCCN(CCOC)c1nc(N2CCC(OC)CC2)c2nc(N(CCOC)CCOC)nc(N(C)Cc3cccc(OC)c3)c2n1 [Compound 171, N4-(3-methoxybenzyl)-N2,N2,N6,N6-tetrakis(2-methoxyethyl)-8-(4-methoxypiperidin-1-yl)-N4-methylpyrimido[5,4-d]pyrimidine-2,4,6-triamine]	< 0.1 µM	< 0.1 µM	0.1 to 0.5 µM	0.1 to 0.5 µM	–
COCCN(CCOC)c1nc(N2CCCC3(COC3)C2)c2nc(N(CCOC)CCOC)nc(N3CCC(OC)CC3)c2n1 [Compound 97, N2,N2,N6,N6-tetrakis(2-methoxyethyl)-4-(4-methoxypiperidin-1-yl)-8-(2-oxa-6-azaspiro[3.5]nonan-6-yl)pyrimido[5,4-d]pyrimidine-2,6-diamine]	–	< 0.1 µM	–	–	AAG HPLC ([4]; AAG binding by HPLC retention time (rt) on CHIRALPAK AGP column, binned): −− (rt below 6 min: −−)
COCCN(CCOC)c1nc(N2CCC(OC)CC2)c2nc(N(CCOC)CCOC)nc(N(C)Cc3cccnc3)c2n1 [Compound 81, N2,N2,N6,N6-tetrakis(2-methoxyethyl)-8-(4-methoxypiperidin-1-yl)-N4-methyl-N4-(pyridin-3-ylmethyl)pyrimido[5,4-d]pyrimidine-2,4,6-triamine]	< 0.1 µM	< 0.1 µM	0.1 to 0.5 µM	0.5 to 1 µM	–
COCCN(CCOC)c1nc(N2CCC(OC)CC2)c2nc(N(CCOC)CCOC)nc(NCc3cncs3)c2n1 [Compound 59, N2,N2,N6,N6-tetrakis(2-methoxyethyl)-8-(4-methoxypiperidin-1-yl)-N4-(thiazol-5-ylmethyl)pyrimido[5,4-d]pyrimidine-2,4,6-triamine]	–	0.1 to 0.5 µM	–	–	–
COCCN(CCOC)c1nc(N2CCC(OC)CC2)c2nc(N(CCOC)CCOC)nc(N3CCC(C#N)CC3)c2n1 [Compound 90, 1-(2,6-bis(bis(2-methoxyethyl)amino)-8-(4-methoxypiperidin-1-yl)pyrimido[5,4-d]pyrimidin-4-yl)piperidine-4-carbonitrile]	–	0.1 to 0.5 µM	–	–	–
COCCN(CCOC)c1nc(N2CCC(OC)CC2)c2nc(N(CCOC)CCOCCN3CCOCC3)nc(N3CCC(OC)CC3)c2n1 [Compound 45, N2,N2,N6-tris(2-methoxyethyl)-4,8-bis(4-methoxypiperidin-1-yl)-N6-(2-(2-morpholinoethoxy)ethyl)pyrimido[5,4-d]pyrimidine-2,6-diamine]	–	0.1 to 0.5 µM	–	–	–

Now from value to compound, other results behind:

IC50 (human ENT1 [1])	IC50 (human ENT1 [3])	Structure (SMILES)	IC50 [2, 5]	IC50 [2, 6]	also measured
< 0.1 µM	< 0.1 µM	COCCN(CCOC)c1nc(N2CCC(OC)CC2)c2nc(N(CCO)Cc3cc(OC)c(OC)c(OC)c3)nc(N3CCC(OC)CC3)c2n1 [Compound 186, 2-((6-(bis(2-methoxyethyl)amino)-4,8-bis(4-methoxypiperidin-1-yl)pyrimido[5,4-d]pyrimidin-2-yl)(3,4,5-trimethoxybenzyl)amino)ethanol]	< 0.1 µM	0.1 to 0.5 µM	–
< 0.1 µM	< 0.1 µM	COCCN(CCOC)c1nc(N2CCC(OC)CC2)c2nc(N(CCOC)Cc3cc(OC)c(OC)c(OC)c3)nc(N3CCC(OC)CC3)c2n1 [Compound 184, N2,N2,N6-tris(2-methoxyethyl)-4,8-bis(4-methoxypiperidin-1-yl)-N6-(3,4,5-trimethoxybenzyl)pyrimido[5,4-d]pyrimidine-2,6-diamine]	< 0.1 µM	< 0.1 µM	–
–	< 0.1 µM	COCCN(CCOC)c1nc(N2CCN(C)C(=O)C2)c2nc(N(CCOC)CCOC)nc(N3CCC(F)(F)CC3)c2n1 [Compound 206, 4-(2,6-bis(bis(2-methoxyethyl)amino)-8-(4,4-difluoropiperidin-1-yl)pyrimido[5,4-d]pyrimidin-4-yl)-1-methylpiperazin-2-one]	–	–	–
–	0.1 to 0.5 µM	CCN1CCN(c2nc(N(CCOC)CCOC)nc3c(N4CCC(OC)CC4)nc(N(CCOC)CCOC)nc23)CC1=O [Compound 198, 4-(2,6-bis(bis(2-methoxyethyl)amino)-8-(4-methoxypiperidin-1-yl)pyrimido[5,4-d]pyrimidin-4-yl)-1-ethylpiperazin-2-one]	–	–	–
–	0.5 to 1 µM	COCCN(CCOC)c1nc(N2CC(=O)N3CCCC3C2)c2nc(N(CCO)CCO)nc(N3CCC(OC)CC3)c2n1 (stereo not drawn) [Compound 314, 2-(6-(bis(2-hydroxyethyl)amino)-2-(bis(2-methoxyethyl)amino)-8-(4-methoxypiperidin-1-yl)pyrimido[5,4-d]pyrimidin-4-yl)hexahydropyrrolo[1,2-a]pyrazin-4(1H)-one]	–	–	–
–	< 0.1 µM	COCCN(Cc1ccc(OC)c(OC)c1OC)c1nc(N2CCN(C)C(=O)C2)c2nc(N(CCOC)CCOC)nc(N3CCC(OC)CC3)c2n1 [Compound 302, 4-(6-(bis(2-methoxyethyl)amino)-2-((2-methoxyethyl)(2,3,4-trimethoxybenzyl)amino)-8-(4-methoxypiperidin-1-yl)pyrimido[5,4-d]pyrimidin-4-yl)-1-methylpiperazin-2-one]	–	–	–
